What was measured:
[1] = target: T1, Glucocorticoid receptor (Homo sapiens, UniProt P04150); assay: Antagonist activity at GAL4-fused human GR LBD (443 to 777 residues) expressed in CHO-K1 cells assessed as inhibition of dexamethasone-induced transactivation activity after 5 to 6 hrs by luciferase reporter gene assay; type: cell-based
T1 sequence (P04150 whole entry): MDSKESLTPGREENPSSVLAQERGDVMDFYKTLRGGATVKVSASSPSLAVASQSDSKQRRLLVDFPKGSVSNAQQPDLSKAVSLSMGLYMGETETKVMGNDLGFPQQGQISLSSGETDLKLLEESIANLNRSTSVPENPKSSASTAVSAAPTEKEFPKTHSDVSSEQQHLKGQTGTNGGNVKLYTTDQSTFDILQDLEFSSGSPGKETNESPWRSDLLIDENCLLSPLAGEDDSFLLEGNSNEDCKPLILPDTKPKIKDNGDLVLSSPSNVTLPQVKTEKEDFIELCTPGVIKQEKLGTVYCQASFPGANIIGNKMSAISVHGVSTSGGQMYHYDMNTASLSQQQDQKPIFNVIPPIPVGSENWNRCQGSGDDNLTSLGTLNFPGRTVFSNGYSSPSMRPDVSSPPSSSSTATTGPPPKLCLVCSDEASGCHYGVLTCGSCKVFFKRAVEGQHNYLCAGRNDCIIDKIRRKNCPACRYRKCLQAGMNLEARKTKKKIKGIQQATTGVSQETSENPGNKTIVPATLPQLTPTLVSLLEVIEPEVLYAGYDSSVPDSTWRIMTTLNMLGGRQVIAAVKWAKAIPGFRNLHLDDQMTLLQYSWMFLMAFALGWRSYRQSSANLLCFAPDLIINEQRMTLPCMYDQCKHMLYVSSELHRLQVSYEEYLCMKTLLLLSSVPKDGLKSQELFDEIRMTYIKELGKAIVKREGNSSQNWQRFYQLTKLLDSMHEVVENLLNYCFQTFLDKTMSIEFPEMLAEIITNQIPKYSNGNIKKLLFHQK

[2] = target: T2, Androgen receptor (Homo sapiens, UniProt P10275); assay: Antagonist activity at GAL4-fused human AR LBD (667 to 919 residues) expressed in CHO-K1 cells assessed as inhibition of dihydrotestosterone-induced transactivation activity after 5 to 6 hrs by luciferase reporter gene assay; type: cell-based
T2 sequence (P10275 whole entry): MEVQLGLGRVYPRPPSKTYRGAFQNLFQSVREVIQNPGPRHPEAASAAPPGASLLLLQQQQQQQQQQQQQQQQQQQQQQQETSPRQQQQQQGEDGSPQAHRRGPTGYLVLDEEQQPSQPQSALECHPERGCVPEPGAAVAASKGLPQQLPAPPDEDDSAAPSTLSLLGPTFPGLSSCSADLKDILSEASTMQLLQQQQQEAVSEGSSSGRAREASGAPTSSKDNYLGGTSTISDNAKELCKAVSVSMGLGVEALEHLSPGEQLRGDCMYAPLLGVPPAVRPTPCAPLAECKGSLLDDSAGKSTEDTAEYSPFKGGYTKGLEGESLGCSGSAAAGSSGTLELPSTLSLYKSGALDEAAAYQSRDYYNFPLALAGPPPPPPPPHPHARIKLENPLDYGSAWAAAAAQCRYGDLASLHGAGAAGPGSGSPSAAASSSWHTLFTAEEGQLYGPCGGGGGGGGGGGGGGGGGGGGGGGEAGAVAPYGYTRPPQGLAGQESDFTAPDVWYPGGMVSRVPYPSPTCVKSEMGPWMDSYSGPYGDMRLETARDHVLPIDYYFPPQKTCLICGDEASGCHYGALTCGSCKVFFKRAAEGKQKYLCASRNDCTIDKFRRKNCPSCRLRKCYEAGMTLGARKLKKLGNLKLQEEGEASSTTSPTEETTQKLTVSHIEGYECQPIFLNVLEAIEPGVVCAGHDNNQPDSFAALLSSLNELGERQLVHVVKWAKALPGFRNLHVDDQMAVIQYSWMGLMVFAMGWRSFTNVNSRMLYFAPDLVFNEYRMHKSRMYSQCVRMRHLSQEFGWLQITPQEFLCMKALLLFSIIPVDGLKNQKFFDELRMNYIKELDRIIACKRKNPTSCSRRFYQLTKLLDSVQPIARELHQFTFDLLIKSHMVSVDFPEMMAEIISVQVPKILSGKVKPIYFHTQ

[3] = target: T3, Mineralocorticoid receptor (Homo sapiens, UniProt P08235); assay: Antagonist activity at Gal4-fused human MR LBD expressed in HEK293T cells assessed as inhibition of aldosterone-induced transactivation activity after 16 hrs by luciferase reporter gene assay; type: cell-based, HEK-293T
T3 sequence (P08235 whole entry): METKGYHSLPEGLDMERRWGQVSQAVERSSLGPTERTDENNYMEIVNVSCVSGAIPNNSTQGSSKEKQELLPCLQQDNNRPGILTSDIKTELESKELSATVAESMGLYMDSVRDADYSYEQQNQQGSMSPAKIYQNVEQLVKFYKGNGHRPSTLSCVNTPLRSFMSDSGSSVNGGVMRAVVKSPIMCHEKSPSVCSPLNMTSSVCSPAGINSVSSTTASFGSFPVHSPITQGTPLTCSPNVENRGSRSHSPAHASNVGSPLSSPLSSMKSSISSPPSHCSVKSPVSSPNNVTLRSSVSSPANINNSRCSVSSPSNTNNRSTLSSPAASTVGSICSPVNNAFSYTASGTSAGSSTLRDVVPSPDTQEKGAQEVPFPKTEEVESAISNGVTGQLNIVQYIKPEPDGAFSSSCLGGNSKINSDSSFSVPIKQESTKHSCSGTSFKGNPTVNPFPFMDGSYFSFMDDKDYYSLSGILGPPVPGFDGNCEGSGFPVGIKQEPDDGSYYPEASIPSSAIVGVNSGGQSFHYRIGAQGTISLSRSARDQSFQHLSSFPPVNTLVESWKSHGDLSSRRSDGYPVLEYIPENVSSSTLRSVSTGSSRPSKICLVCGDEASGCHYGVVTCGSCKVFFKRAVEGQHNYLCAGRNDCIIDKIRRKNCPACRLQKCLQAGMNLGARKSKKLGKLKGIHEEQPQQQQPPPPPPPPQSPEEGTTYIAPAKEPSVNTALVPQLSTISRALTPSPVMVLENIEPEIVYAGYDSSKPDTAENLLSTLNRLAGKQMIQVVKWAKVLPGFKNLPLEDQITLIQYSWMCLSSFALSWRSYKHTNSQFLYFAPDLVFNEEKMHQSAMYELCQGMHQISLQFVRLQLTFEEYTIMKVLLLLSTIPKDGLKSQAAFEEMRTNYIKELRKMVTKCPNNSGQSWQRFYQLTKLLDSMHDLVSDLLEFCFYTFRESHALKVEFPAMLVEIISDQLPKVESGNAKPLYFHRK

CCOc1ncc(C)c2c1[C@H](c1ccc(C#N)cc1OC)C(C(N)=O)=C(C)N2 [FINERENONE]
IC50 [1]: ≥ 10 µM
IC50 [2]: ≥ 10 µM
IC50 [3]: 0.058 µM

Reference: ChEMBL document CHEMBL4007392, “Modulating Mineralocorticoid Receptor with Non-steroidal Antagonists. New Opportunities for the Development of Potent and Selective Ligands without Off-Target Side Effects” (J Med Chem, 2017)
